Reference: patent publication US8324282B2, “Alkylating agent combinations in the treatment of cancer” (Case Western Reserve University, priority 1999, dated 2012)

Experiments:
[1] = system: AP sites in calf thymus DNA; assay: Competitive AP site binding assayed by Aldehyde Reactive Probe (ARP); settings: MX 5-20 mM
Source text: 1. Analysis of chemical—modified AP Sites assayed by Aldehyde Reactive Probe (ARP). This is a competitive assay to measure the reactivity with AP site between ARP reagent (Dojindo Molecular Technologies Inc., Gaithersburg, Md.) and the screening compounds. ARP and MX have a similar reactivity with AP sites. They react specifically with an aldehyde group that is open ring form of the AP sites. Thus this assay will allow identification of compounds with potential to block AP site repair based on the binding affinity and efficiency to AP sites of screening compounds compared to ARP and MX.
a. AP site standard preparation: AP sites were produced in a calf thymus DNA by heat/acid-buffer solution. Intact calf thymus DNA was added to sodium citrate buffer (10 mM sodium citrate containing 10 mM NaH2PO4 and 10 mM NaCl, pH 5.0) and held at 70° C. for 30 min. The reaction was stopped by chilling rapidly on ice, and the DNA was then precipitated with cold ethanol, washed with 70% ethanol, dried, and resuspended in sterilized distilled water.
b. […] After NC membrane was rinsed with washing buffer containing NaCl (0.26 M), EDTA (1 mM), Tris-HCI (20 mM), and Tween 20 (1%), ARP-AP sites are visualized with ECL reagents (Amersham Corp.) (FIG. 22A) and quantitated by scanning densitometer (FIG. 22B).

DEtp cell line = assay: DEtp subline of DLD1; assay type: cell-based; settings: DEtp cell line
Source text: We also investigated whether TMZ and MX-induced MX-AP sites may also act as poisons of topoisomerase II α (topo II), producing dual lethal targets. To analyze the effect of MX-AP site on topo II-mediated DNA cleavage, a position-specific MX-AP site was generated on topo II cleavage sites using oligonuleotides for cleavage assay. […] We also found prolonged induction of topo II and remarkable increase in DNA double strand breaks in cells treated with TMZ and MX compared to TMZ alone. Similar results were also observed in cells treated with etoposide but not with N-methyl-maleimide (a catalytic inhibitor of topo II and also an antagonizer of etoposide). Moreover, the potentiation of TMZ by MX was decreased in DEtp cell line that was a subline derived from DLD1 and 5-fold more resistant to etoposide compared to the parental cell line.

SW480 cells [2] = assay: Flow cytometry cell cycle distribution and apoptosis, SW480
Experimental: Median Effect Analysis (MEA). MEA was used to determine the dose-response interactions between TMZ and either MX or PD 128763. Drugs were combined at the ratio of the IC50 values for either TMZ and MX or TMZ and PD 128763 as determined by survival/concentration curves. The combination was compared to the cytotoxicity of each drug alone in every experiment. The combination index (CI) was determined from colony-forming assays at increasing levels of cell killing, using analysis of multiple drug interaction program (Biosoft, Cambridge, United Kingdom) developed based on method of Chou and Talalay (Chou and Talalay “Quantitative analysis of dose-effect relationship: the combined effects of multiple drugs on enzyme inhibitors” In: G. Weber (ed.) Advances in Enzyme Regulation, pp. 27-55, New York: Pergamon Press, 1983). […] DNA fluorescence of PI-stained cells was measured with an Elite ESP flow cytometer/cell sorter (Coulter, Miami, Fla.). Cell cycle distribution was analyzed with Modfit 5.2 program (Verity software, Topsham, Mass.) at least 10,000 cells per data point. […] The tumors were measured with calipers using the National Cancer Institute formula: V=L(mm)×I^2 (mm)/2 where L is the largest diameter and I is the smallest diameter of the tumor. […] The relative tumor volume (V/V0) was calculated by dividing the measured tumor volume (V) by the initial tumor volume (V0) at day 0. […]

SW480 xenograft = SW480 xenograft tumor response in nude mice; assay type: in vivo; settings: SW480 xenograft; Table 1 doses: TMZ 120, MX 2, BG+TMZ 30/120, MX+TMZ 2/120 mg/kg; daily for 5 days
SW480 cells [3] = assay: Colony survival assay, SW480; assay type: cell-based, human
Source text: Chemicals and Reagents. BG was generously provided by Dr. Robert Moschel (Frederick Cancer Research and Development Center, National Cancer Institute). Stock solution was made in dimethylsulfoxide. TMZ and BCNU were obtained from the Drug Synthesis and Chemistry Branch, Drug Therapeutic Program, National Cancer Center Institute. PD128763 was a gift from Park-Davis Pharmaceutical Division. 6-AN, 3-AB, MX and methylmethane sulfonate (MMS) were purchased from Sigma (ST. Louis, Mo.). Stock solutions of PD128763, 3-AB and 6-AN were prepared by dissolving in dimethylsulfoxide and added to cell culture at a final concentration of <1% DMSO, when cells were treated with these compounds. MX was dissolved in sterilized water (pH 7.0). All stock solutions were kept at −20° C. BCNU was prepared fresh in 0.5 ml of 100% ethanol, diluted in PBS, and used with in 10 min. Colony Survival Assay. SW480 cells were obtained from the ATCC. HCT116 cells were obtained from R. Boland, University of Michigan Medical Center. All cell lines were cultured in appropriate growth medium.
Cells (2000/dish) were plated, adhered for 18 hrs and treated with TMZ or
MMS plus or minus modifiers such as […], MX, 6-AN, 3-AB or PD128763, according to experimental protocol. After treatment, cells were washed and fresh medium was replaced. The cells were grown for a further 7 days prior to staining with methylene blue for determination of colonies containing more than 50 cells. Comparisons of drug induced cytotoxicity consisted of a calculation of the dose modification factor (DMF), defined as the ratio of the IC50 of either TMZ or MMS in the absence to that in the presence of indicted modifier(s), i.e., DMF═IC50 for TMZ alone/IC50 for TMZ plus modifier(s).

HCT116 cells = assay: Growth inhibition assay (MTT), HCT116; assay type: cell-based, human; settings: HCT116; MX 6 mM plus H2O2 0-150 μM 1 hr
Experimental: In this experiment, a growth inhibition assay was carried out with H2O2, an oxidizing agent that mimics the effect of chemotherapeutic agents and radiation. Cells in the exponential phase were plated (1×10^4) in 24-well tissue culture plates. After attachment overnight, the cells were incubated with hydrogen peroxide (H2O2) (0-150 μM) or MX (6 mM) plus H2O2 for 1 hr. Five days after treatment, the media was discarded, and 100 μl of MTT (5 mg/ml in PBS) was added in 1 ml fresh media to each well for 4 hrs at 37° C. The MTT solution was then removed, and the formazan crystals were dissolved in 200 μl/well of DMSO for 20 min and changes in absorbance were determined at A540nm. Percentage growth inhibition was calculated by comparison of the A540nm reading from treated versus control cells.
The agents contemplated for combinations with MX in this example are agents which incorporate into DNA and are repaired by BER to form AP sites. Cell-growth inhibition was carried out with HCT116 cells to test MX-potentiated cytotoxicity of iododeoxyuridine (IUdR), which has been recognized as a radiosensitizing agent since the early 1960's.

[4] = Toxicity evaluation in mice bearing SW480 xenograft; settings: Table 1 doses
Experimental: Tumors in Nude Mice. Tumor cells (5×10^6) were injected into flanks of female athymic HSD nude mice, at 6-8 weeks of age. The tumors were measured with calipers using the National Cancer Institute formula: V=L(mm)×I^2 (mm)/2 where L is the largest diameter and I is the smallest diameter of the tumor. […] Toxicity Evaluation. Toxicity after treatment was evaluated by body weight measurements and peripheral WBC counting. Body weight was measured three times weekly from the first treatment until 2 weeks after the end of treatment. The weight loss was expressed as a percentage of the initial weight (initial weight−lowest weight/initial weight×100%).

AP sites in SW480 cells = assay: AP sites measured with ARP reagent and S phase in SW480 cells, prolonged MX exposure; settings: MX and TMZ over 72 h
Source text: Cell lines used in this study include SW480 (MMR wt, p53 mut), HCT116 (hMLH1 mut, p53 wt) and HCT15 (hMSH6 mut, p53 mut). We measured AP sites using ARP reagent, noting that ARP and MX compete for binding to AP sites. […] It is likely that cytotoxicity elicited by both topol/II inhibitors and MX-AP sites is due to DNA cleavable complexes, and is thus dependent on the level of topo I/II expression.

CON [MX, methoxyamine]
AP binding sites blocked (relative reduction of ARP-detected AP sites by densitometry) [1]: 38-80%
potentiation of TMZ by MX (DEtp cell line): decreased
effect of modifier alone on cell cycle distribution (SW480 cells [2]): did not affect
Tumor growth delays (SW480 xenograft): 2.0 ± 0.5 days
cytotoxicity of MX alone (SW480 cells [3]; SW480, 6 mM MX): nontoxic
DMF / potentiation of MMS cytotoxicity (SW480 cells [3]; SW480, MMS 0-3 mM plus 6 mM MX and/or BG vs MMS alone): 2.0 fold
DMF (IC50 for TMZ alone/IC50 for TMZ plus modifier(s)) (SW480 cells [3]; SW480, modifier(s) plus TMZ vs TMZ alone): 2.4 fold
effect of modifier on BCNU cytotoxicity (SW480 cells [3]; SW480, without BG): No enhancement
potentiation of TMZ cytotoxicity (SW480 cells [3]; SW480 tumor cells, Example 13): 4 fold
sensitivity to killing induced by H2O2 (HCT116 cells): significantly increased sensitivity
Toxicity (max. BW loss) [4]: 0%
AP sites MX bound (AP sites in SW480 cells): 80%
